Data: US10214546B2, “Btk inhibitors” (MERCK SHARP & DOHME CORP., priority 2014, dated 2019)
pIC50: −log10 of the molar value. Like-named read-outs stand apart in the source and are kept apart here.

Assays:
[1] = biological target: BTK enzyme (recombinant full-length BTK, hBTK) (Homo sapiens (Human), UniProt Q06187); assay: BTK enzymatic activity LANCE TR-FRET assay; format: biochemical; conditions: 50 pM hBTK, 25 μM ATP, 2 μM biotin-A5-peptide; compound range 1 μM to 0.017 nM; read-out: BTK binding IC50
Chain of BTK enzyme (recombinant full-length BTK, hBTK) (Q06187 whole entry): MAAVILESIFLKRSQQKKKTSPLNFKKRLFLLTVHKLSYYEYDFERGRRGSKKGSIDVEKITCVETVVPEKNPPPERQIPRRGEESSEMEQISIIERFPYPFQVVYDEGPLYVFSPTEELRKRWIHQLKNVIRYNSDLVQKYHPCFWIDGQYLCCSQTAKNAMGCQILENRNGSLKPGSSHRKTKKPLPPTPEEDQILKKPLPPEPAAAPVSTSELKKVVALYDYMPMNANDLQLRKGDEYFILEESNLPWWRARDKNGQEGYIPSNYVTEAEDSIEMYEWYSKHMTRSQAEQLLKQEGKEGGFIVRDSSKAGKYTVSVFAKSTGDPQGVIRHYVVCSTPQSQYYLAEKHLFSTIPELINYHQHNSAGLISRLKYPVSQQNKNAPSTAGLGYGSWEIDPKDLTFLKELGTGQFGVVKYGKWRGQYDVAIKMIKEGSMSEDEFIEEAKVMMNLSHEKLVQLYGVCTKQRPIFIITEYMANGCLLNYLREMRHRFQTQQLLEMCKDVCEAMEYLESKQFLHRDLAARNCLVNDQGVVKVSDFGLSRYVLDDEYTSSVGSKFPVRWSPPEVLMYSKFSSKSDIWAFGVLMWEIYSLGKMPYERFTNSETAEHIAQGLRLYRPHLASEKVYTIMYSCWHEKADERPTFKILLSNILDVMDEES

[2] = test system: adenosine uptake into HeLa cells; assay: [3H]Adenosine uptake assay in HeLa cells; format: cell-based; conditions: [3H]adenosine accumulation in HeLa cells, compound range 10 μM to 0.032 nM, read-out: ADU inhibition IC50
Summary of the method: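 HeLa cells in HBSS + 5% FBS were preincubated 30 min at ambient temperature with compound (ten-point 1:3 series, 10 µM–[…] final), then given [3H]adenosine (added as a 500 nM solution) for 60 min. Cell-associated label was read by scintillating-plate proximity counting; IC50 from 4-parameter fit of cps versus log concentration.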

pIC50 [1]	pIC50 ([2]; Homo sapiens, HeLa)	pIC50 [2]	Compound
9.55	5.50	–	COc1cc(-c2nc([C@@H]3CC[C@H]4CCC(=O)N4C3)n3ccnc(N)c23)ccc1[C@](C)(O)c1cccc(C2CC2)c1 [Example 98, (6R,8aS)-6-(8-amino-1-{4-[(1R)-1-(3-cyclopropylphenyl)-1-hydroxyethyl]-3-methoxyphenyl}imidazo [1,5-a]pyrazin-3-yl)hexahydroindolizin-3(2H)-one]
8.16	5.70	–	Nc1nccn2c([C@@H]3CC[C@H]4CCC(=O)N4C3)nc(-c3ccc(C(O)(c4cccc(F)c4)C(F)(F)F)cc3)c12 (stereo partly drawn) [Example 29, (6R,8aS)-6-(8-amino-1-{4-[2,2,2-trifluoro-1-(3-fluorophenyl)-1-hydroxyethyl]phenyl}imidazo[1,5-a]pyrazin-3-yl)hexahydroindolizin-3(2H)-one]
8.33	6.13	–	C[C@](O)(c1ccc(-c2nc([C@@H]3CC[C@H]4CCC(=O)N4C3)n3ccnc(N)c23)cc1)c1cccc(C2CCC2)c1 [Example 82, (6R,8aS)-6-(8-amino-1-{4-[(1S)-1-(3-cyclobutylphenyl)-1-hydroxyethyl]phenyl]imidazo[1,5-a]pyrazin-3-yl)hexahydroindolizin-3(2H)-one]
8.30	–	5.62	CC(O)(c1cccc(C(F)(F)F)c1)c1ccc(-c2nc([C@@H]3CC[C@H]4CCC(=O)N4C3)n3c(F)cnc(N)c23)c(F)c1 (stereo partly drawn) [Example 185, (6R,8aS)-6-[8-amino-5-fluoro-1-(2-fluoro-4-{1-hydroxy-1-[3-(trifluoromethyl)phenyl]ethyl}phenyl)imidazo [1,5-a]pyrazin-3-yl]hexahydroindolizin-3(2H)-one]
8.89	5.51	–	CCOc1cc([C@@](C)(O)c2cccc(C(F)(F)F)c2)ccc1-c1nc([C@@H]2CC[C@@H]3N(C2)C(=O)CC3(C)C)n2ccnc(N)c12 [Example 186, (6R,8aS)-6-[8-amino-1-(2-ethoxy-4-{(1S)-1-hydroxy-1-[3-(trifluoromethyl)phenyl]ethyl}phenyl)imidazo [1,5-a]pyrazin-3-yl]-1,1-dimethylhexahydroindolizin-3(2H)-one]
6.77	5.63	–	CC(O)(c1ccc(F)cc1)c1ccc(-c2nc([C@@H]3CC[C@H]4CCC(=O)N4C3)n3ccnc(N)c23)cc1 (stereo partly drawn) [Example 19, (6R,8aS)-6-(8-amino-1-{4-(1-(4-fluorophenyl)-1-hydroxyethyl]phenyl}imidazo[1,5-a]pyrazin-3-yl)hexahydroindolizin-3(2H)-one]
6.07	5.56	–	C[C@@](O)(c1ccc(-c2nc([C@@H]3CC[C@H]4CCC(=O)N4C3)n3ccnc(N)c23)cc1)c1ccnc(C(F)(F)F)c1 [Example 155, (6R,8aS)-6-[8-amino-1-(4-{(1R)-1-hydroxy-1-[2-(trifluoromethyl)pyridin-4-yl]ethyl}phenyl)imidazo [1,5-a]pyrazin-3-yl]hexahydroindolizin-3(2H)-one]
6.09	5.76	–	C[C@@](O)(c1cccc(C(F)(F)F)c1)c1ccc(-c2nc([C@@H]3CC[C@H]4CCC(=O)N4C3)n3ccnc(N)c23)c(C(F)F)c1 [Example 80, (6R,8aS)-6-{8-amino-1-[2-(difluoromethyl)-4-{(1S)-1-hydroxy-1-[3-(trifluoromethyl)phenyl]ethyl}phenyl]imidazo [1,5-a]pyrazin-3-yl}-hexahydroindolizin-3(2H)-one]
6.00	–	6.23	Nc1nccn2c([C@@H]3CC[C@H]4CCC(=O)N4C3)nc(-c3ccc(C(O)(c4cccc(C(F)(F)F)c4)C4CC4)cc3)c12 (stereo partly drawn) [Example 86, (6R,8aS)-6-[8-amino-1-(4-{cyclopropyl(hydroxy)[3-(trifluoromethyl)phenyl]methyl}phenyl)imidazo [1,5-a]pyrazin-3-yl]hexahydroindolizin-3(2H)-one]
6.82	5.16	–	Nc1nccn2c([C@@H]3CC[C@H]4CCC(=O)N4C3)nc(-c3ccc([C@@](O)(CO)c4cccc(C(F)(F)F)c4)cc3)c12 [Example 106, (6R,8aS)-6-[8-amino-1-(4-{(1S)-1,2-dihydroxy-1-[3-(trifluoromethyl)phenyl]ethyl}phenyl)imidazo [1,5-a]pyrazin-3-yl]hexahydroindolizin-3(2H)-one]
8.74	5.42	–	Nc1nccn2c([C@@H]3CC[C@H]4CCC(=O)N4C3)nc(-c3ccc([C@](O)(c4ccccc4)C(F)(F)F)cc3)c12 [Example 25, (6R,8aS)-6-(8-amino-1-{4-[(1R)-2,2,2-trifluoro-1-hydroxy-1-phenylethyl]phenyl}imidazo[1,5-a]pyrazin-3-yl)hexahydroindolizin-3(2H)-one]
9.85	5.63	–	C[C@@](O)(c1ccc(-c2nc([C@@H]3CC[C@H]4CCC(=O)N4C3)n3c(Cl)cnc(N)c23)cc1)c1cccc(C(F)F)c1 [Example 134, (6R,8aS)-6-[8-amino-5-chloro-1-(4-{(1R)-1-[3-(difluoromethyl)phenyl]-1-hydroxyethyl}phenyl)imidazo[1,5-a]|pyrazin-3-yl]hexahydroindolizin-3(2H)-one]
7.52	5.99	–	C[C@](O)(c1ccc(-c2nc([C@@H]3CC[C@H]4CCC(=O)N4C3)n3ccnc(N)c23)cc1)c1cccc(C(F)F)c1 [Example 70, (6R,8aS)-6-[8-amino-1-(4-{(1S)-1-[3-(difluoromethyl)phenyl]-1-hydroxyethyl}phenyl)imidazo[1,5-a]pyrazin-3-yl]hexahydroindolizin-3(2H)-one]
9.33	5.42	–	C[C@@](O)(c1ccc(-c2nc([C@@H]3CC[C@H]4CCC(=O)N4C3)n3ccnc(N)c23)cc1)c1cccc(Cl)c1 [Example 52, (6R,8aS)-6-(8-amino-1-{4-[(1R)-1-(3-chlorophenyl)-1-hydroxyethyl]phenyl}imidazo[1,5-a]pyrazin-3-yl)hexahydroindolizin-3(2H)-one]
10.00	5.74	–	CC1(C)CC(=O)N2C[C@H](c3nc(-c4ccc([C@@](C)(O)c5cccc(C(F)F)c5)cc4)c4c(N)nccn34)CC[C@H]21 [Example 177, (6R,8aS)-6-[8-amino-1-(4-{(1R)-1-[3-(difluoromethyl)phenyl]-1-hydroxyethyl}phenyl)imidazo[1,5-a]pyrazin-3-yl]-1,1-dimethylhexahydroindolizin-3(2H)-one]
7.14	–	5.77	CCC(O)(c1ccc(-c2nc([C@@H]3CC[C@H]4CCC(=O)N4C3)n3ccnc(N)c23)cc1)c1cccc(C(F)(F)F)c1 (stereo partly drawn) [Example 61, (6R,8aS)-6-[8-amino-1-(4-{1-hydroxy-1-[3-(trifluoromethyl)phenyl]propyl}phenyl)imidazo [1,5-a]pyrazin-3-yl]hexahydroindolizin-3(2H)-one]
8.15	5.16	–	CC1(C)C[C@@H]2CC[C@@H](c3nc(-c4ccc([C@@](C)(O)c5cccc(C(F)(F)F)c5)cc4)c4c(N)ncc(F)n34)CN2C1=O [Example 198, (6R,8aS)-6-[8-amino-5-fluoro-1-(4-{(1R)-1-hydroxy-1-[3-(trifluoromethyl)phenyl]ethyl}phenyl)imidazo [1,5-a]pyrazin-3-yl]-2,2-dimethylhexahydroindolizin-3(2H)-one]
9.12	5.76	–	C[C@@](O)(c1ccc(-c2nc([C@@H]3CC[C@H]4CCC(=O)N4C3)n3c(Cl)cnc(N)c23)cc1)c1cccc(C(F)(F)F)c1 [Example 6, (6R,8aS)-6-(8-amino-5-chloro-1-(4-((R)-1-hydroxy-1-(3-(trifluoromethyl)phenyl)ethyl)phenyl)imidazo[1,5-a]pyrazin-3-yl)hexahydroindolizin-3(2H)-one]
8.25	–	5.73	Nc1nccn2c([C@@H]3CC[C@H]4CCC(=O)N4C3)nc(-c3ccc(C(O)(c4cccc(C(F)(F)F)c4)C(F)F)cc3)c12 (stereo partly drawn) [Example 112, (6R,8aS)-6-[8-amino-1-(4-{2,2-difluoro-1-hydroxy-1-[3-(trifluoromethyl)phenyl]ethyl}phenyl)imidazo [1,5-a]pyrazin-3-yl]hexahydroindolizin-3(2H)-one]
8.74	5.70	–	C[C@@](O)(c1ccc(-c2nc([C@@H]3CC[C@H]4CCC(=O)N4C3)n3ccnc(N)c23)cc1)c1cccc(OC2CC2)c1 [Example 95, (6R,8aS)-6-[8-amino-1-(4-{(1R)-1-[3-(cyclopropyloxy)phenyl]-1-hydroxyethyl}phenyl)imidazo[1,5-a]pyrazin-3-yl]hexahydroindolizin-3(2H)-one]
7.32	–	6.08	CC(O)(c1ccc(-c2nc([C@@H]3CC[C@H]4CCC(=O)N4C3)n3ccnc(N)c23)cc1)c1cccc(C2CC2(F)F)c1 (stereo partly drawn) [Example 164, (6R,8aS)-6-[8-amino-1-(4-{1-[3-(2,2-difluorocyclopropyl)phenyl]-1-hydroxyethyl}phenyl)imidazo[1,5-a]pyrazin-3-yl]hexahydroindolizin-3(2H)-one]
6.49	5.24	–	CC(O)(c1ccc(-c2nc([C@@H]3CC[C@H]4CCC(=O)N4C3)n3ccnc(N)c23)cc1)c1ccccn1 (stereo partly drawn) [Example 17, (6R,8aS)-6-{8-amino-1-[4-(1-hydroxy-1-pyridin-2-ylethyl)phenyl]imidazo[1,5-a]pyrazin-3-yl}hexahydroindolizin-3(2H)-one]

Compound	pIC50 [1]	pIC50 ([2]; Homo sapiens, HeLa)	pIC50 [2]
(6R.8aS)-6-[8-amino-1- (4-{(1R)-1-[3- (difluoromethyl)phenyl]-1- hydroxyethyl}phenyl)- 5-fluoroimidazo[1,5- a]pyrazin-3-yl]-2,2- dimethylhexahydroindolizin- 3(2H)-one [Example 178]	8.89	–	5.34
